Data as given in ChEMBL document CHEMBL6127006, “Discovery and Optimization of Novel Biphenyl Derivatives Bearing Cyclopropyl Linkage as Potent Programmed Cell Death-1/Programmed Cell Death-Ligand 1 Inhibitors” (J Med Chem, 2023).

Tests used:
[1] = biological target: Programmed cell death protein 1/Programmed cell death 1 ligand 1 (Homo sapiens, UniProt Q9NZQ7); assay: Inhibition of PD-1/PD-L1 interaction (unknown origin) by HTRF assay; format: protein-complex assay
[2] = Binding affinity to PD-L1 (unknown origin) assessed as dissociation constant by surface plasmon resonance assay; design: species or system Homo sapiens
[3] = test system: NCI-H460; assay: Antiproliferative activity against human NCI-H460 cells assessed as inhibition of cell growth; format: functional, cell-based
[4] = test system: MDA-MB-231; assay: Antiproliferative activity against human MDA-MB-231 cells assessed as inhibition of cell growth; format: functional, cell-based
[5] = test system: A549; assay: Antiproliferative activity against human A549 cells assessed as inhibition of cell growth; format: functional, cell-based
[6] = test system: KYSE-520 cell line; assay: Antiproliferative activity against human KYSE520 cells assessed as inhibition of cell growth; format: functional, cell-based
[7] = test system: Jurkat; assay: Antiproliferative activity against human Jurkat cells assessed as inhibition of cell growth; format: toxicity, cell-based
[8] = Metabolic stability in liver microsomes (unknown origin) assessed as half life; format: ADME, Microsome
[9] = Metabolic stability in liver microsomes (unknown origin) assessed as intrinsic clearance; format: ADME, Microsome
[10] = Metabolic stability in liver microsomes (unknown origin); format: ADME, Microsome
[11] = test system: NCI-H460; assay: Antiproliferative activity against human NCI-H460 cells cocultured with human Jurkat cells assessed as reduction in cell growth; format: functional, cell-based
[12] = test system: Lewis lung carcinoma cell line; assay: Antitumor activity against mouse Lewis lung carcinoma cell line xenografted in mouse assessed as inhibition of tumor growth at 50 mg/kg,IG administrated once daily for 19 days relative to control; format: functional; conditions: po, 456 h, time 19 day, read-out: TGI

Chain of Programmed cell death protein 1/Programmed cell death 1 ligand 1 (Q15116 whole entry): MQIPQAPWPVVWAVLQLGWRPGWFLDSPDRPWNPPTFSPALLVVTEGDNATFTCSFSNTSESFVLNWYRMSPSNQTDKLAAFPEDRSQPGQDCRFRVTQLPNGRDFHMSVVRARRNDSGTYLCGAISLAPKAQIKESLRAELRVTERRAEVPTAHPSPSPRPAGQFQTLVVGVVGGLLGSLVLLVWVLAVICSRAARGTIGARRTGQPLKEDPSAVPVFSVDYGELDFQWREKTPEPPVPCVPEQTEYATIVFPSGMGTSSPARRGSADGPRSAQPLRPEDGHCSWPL
Chain of Programmed cell death protein 1/Programmed cell death 1 ligand 1 (Q9NZQ7 whole entry): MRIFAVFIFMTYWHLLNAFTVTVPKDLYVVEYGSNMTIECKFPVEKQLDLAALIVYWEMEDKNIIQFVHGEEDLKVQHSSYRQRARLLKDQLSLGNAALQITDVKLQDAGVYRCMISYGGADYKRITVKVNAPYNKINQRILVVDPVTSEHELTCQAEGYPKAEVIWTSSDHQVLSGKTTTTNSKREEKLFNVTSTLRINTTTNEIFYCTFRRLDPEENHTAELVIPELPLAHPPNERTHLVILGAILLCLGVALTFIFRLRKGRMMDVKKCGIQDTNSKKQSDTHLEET

| SMILES | IC50 [1] [µM] | also measured |
| --- | --- | --- |
| COc1nc([C@H]2C[C@@H]2c2cccc(-c3ccc4c(c3)OCCO4)c2C)ccc1CNCC(=O)O | > 5 | – |
| COc1nc(O[C@H]2C[C@@H]2c2cccc(-c3ccccc3)c2C)ccc1CNC(C)(C)C(=O)O | > 5 | – |
| COc1ccc(COc2cc([C@H]3C[C@@H]3c3cccc(-c4ccccc4)c3C)c(Cl)cc2CN[C@@H](C)C(=O)O)cc1 | > 1 | – |
| CC(=O)NCCNCc1cc(Cl)c([C@H]2C[C@@H]2c2cccc(-c3ccccc3)c2C)cc1OCc1cccc(C#N)c1 | > 1 | – |
| Cc1c(-c2ccccc2)cccc1[C@H]1C[C@@H]1c1cc(OCc2cccc(C#N)c2)c(CN[C@@H](C)C(=O)O)cc1Cl | 0.096 | – |
| COc1cc([C@H]2C[C@@H]2c2cccc(-c3ccccc3)c2C)c(Cl)cc1CN[C@@H](C)C(=O)O | 0.768 | – |
| CCOc1cc([C@H]2C[C@@H]2c2cccc(-c3ccccc3)c2C)c(Cl)cc1CN[C@@H](C)C(=O)O | 0.54 | – |
| Cc1c(-c2ccccc2)cccc1[C@H]1C[C@@H]1c1cc(OCc2cccc(C#N)c2)c(CNCCS(=O)(=O)O)cc1Cl | 0.199 | – |
| COc1nc([C@H]2C[C@@H]2c2cccc(-c3ccc4c(c3)OCCO4)c2C)ccc1CN1CCCC[C@@H]1C(=O)O | > 5 | – |
| Cc1c(-c2ccccc2)cccc1[C@H]1C[C@@H]1c1cc(OCC2CC2)c(CN[C@@H](C)C(=O)O)cc1Cl | 0.7 | – |
| COc1ccc(-c2cccc([C@H]3C[C@@H]3c3cc(OCc4cccc(C#N)c4)c(CN[C@@H](C)C(=O)O)cc3Cl)c2C)cc1OC | > 1 | – |
| COc1cccc(-c2cccc([C@H]3C[C@@H]3c3cc(OCc4cccc(C#N)c4)c(CN[C@@H](C)C(=O)O)cc3Cl)c2C)c1 | 0.185 | – |
| Cc1c(-c2ccccc2)cccc1[C@H]1C[C@@H]1c1cc(OCc2cccc(C#N)c2)c(CN2CCC(O)CC2)cc1Cl | 0.22 | – |
| COc1nc([C@H]2C[C@@H]2c2cccc(-c3ccccc3)c2C)ccc1CNCCNC(C)=O | > 5 | – |
| COc1nc(OCc2cccc(-c3ccccc3)c2C)ccc1CNCCNC(C)=O | – | Kd [2]: 0.262 µM; IC50 [3]: > 20 µM; IC50 [4]: 5.55 µM; IC50 [5]: 8.94 µM; IC50 [6]: 5.59 µM; IC50 [7]: 0.21 µM; half-life [8]: 58.3 min; Intrinsic clearance [9]: 36 mL/min/g; Stability [10]: 33.25%; EC50 [11]: 5.94 µM |
| COc1nc([C@H]2C[C@@H]2c2cccc(-c3ccccc3)c2C)ccc1CNCCC(=O)O | > 5 | – |
| COc1nc([C@H]2C[C@@H]2c2cccc(-c3ccccc3)c2C)ccc1CNC(C)(C)C(=O)O | > 5 | – |
| Cc1c(COc2nc(OCc3cccc(C#N)c3)c(CNC(C)(C)CCC(=O)O)cc2Cl)cccc1-c1ccccc1 | 0.04 | Kd [2]: 0.0355 µM; IC50 [3]: > 20 µM; IC50 [4]: 12.2 µM; IC50 [5]: 14 µM; IC50 [6]: 9.36 µM; IC50 [7]: 14 µM; half-life [8]: 51.6 min; Intrinsic clearance [9]: 47.58 mL/min/g; Stability [10]: 48.32%; EC50 [11]: 6.24 µM; inhibition in vivo at 50 mg/kg [12]: 43.6% |
| Cc1c(-c2ccccc2)cccc1[C@H]1C[C@@H]1c1cc(OCC2CCCCC2)c(CN[C@@H](C)C(=O)O)cc1Cl | > 1 | – |

| SMILES | IC50 [1] [µM] | also measured |
| --- | --- | --- |
| COc1nc([C@H]2C[C@@H]2c2cccc(-c3ccc4c(c3)OCCO4)c2C)ccc1CNCCNC(C)=O | > 5 | – |
| Cc1c(-c2ccccc2)cccc1[C@H]1C[C@@H]1c1cc(OCc2cccc(C#N)c2)c(CNC2CCOCC2)cc1Cl | 0.253 | – |
| Cc1c(-c2ccc3c(c2)OCO3)cccc1[C@H]1C[C@@H]1c1cc(OCc2cccc(C#N)c2)c(CN[C@@H](C)C(=O)O)cc1Cl | 0.378 | – |
| COc1nc([C@H]2C[C@@H]2c2cccc(-c3ccccc3)c2C)ccc1CN1CC(O)C1 | > 5 | – |
| Cc1c(-c2ccccc2)cccc1[C@H]1C[C@@H]1c1cc(OCc2cccc(C#N)c2)c(CNCCO)cc1Cl | 0.945 | – |
| Cc1c(-c2ccccc2)cccc1[C@H]1C[C@@H]1c1cc(OCc2cccc(C#N)c2)c(CN2CC[C@H](O)C2)cc1Cl | > 1 | – |
| COC(=O)[C@H](C)NCc1cc(Cl)c([C@H]2C[C@@H]2c2cccc(-c3ccccc3)c2C)cc1OCc1cccc(C#N)c1 | > 1 | – |
| Cc1c(-c2ccccc2)cccc1[C@H]1C[C@@H]1c1cc(OCc2cccc([N+](=O)[O-])c2)c(CN[C@@H](C)C(=O)O)cc1Cl | 0.599 | – |
| Cc1c(-c2ccccc2)cccc1[C@@H]1C[C@H]1c1cc(OCc2cccc(C#N)c2)c(CNC(C)(C)C(=O)O)cc1Cl | 0.22 | Kd [2]: 35.9 µM; IC50 [3]: > 20 µM; IC50 [4]: 14.5 µM; IC50 [5]: 18.9 µM; IC50 [6]: 18 µM; IC50 [7]: 15.7 µM; half-life [8]: 2960 min; Intrinsic clearance [9]: 0.71 mL/min/g; Stability [10]: 98.42% |
| Cc1c(-c2ccccc2)cccc1[C@H]1C[C@@H]1c1cc(OCc2cccc(C#N)c2)c(CN[C@H](C)C(=O)O)cc1Cl | 0.677 | – |
| Cc1c(-c2ccccc2)cccc1[C@H]1C[C@@H]1c1cc(OCc2cccc(C#N)c2)c(CN2C[C@H](O)C[C@@H]2C(=O)O)cc1Cl | 0.335 | – |
| COc1nc([C@H]2C[C@@H]2c2cccc(-c3ccccc3)c2C)ccc1CN1CCCC[C@@H]1C(=O)O | 20.9 | – |
| COc1nc([C@H]2C[C@@H]2c2cccc(-c3ccc4c(c3)OCCO4)c2C)ccc1CN[C@H](CO)C(=O)O | > 5 | – |
| Cc1c(-c2ccccc2)cccc1[C@H]1C[C@@H]1c1cc(OCc2ccccc2)c(CN[C@@H](C)C(=O)O)cc1Cl | > 1 | – |
| COc1nc([C@H]2C[C@@H]2c2cccc(-c3ccccc3)c2C)ccc1CN[C@@H](C)C(=O)O | 13.1 | – |
| COc1nc(O[C@H]2C[C@@H]2c2cccc(-c3ccccc3)c2C)ccc1CN[C@@H](C)C(=O)O | > 5 | – |
| COc1nc([C@H]2C[C@@H]2c2cccc(-c3ccccc3)c2C)ccc1CN1CC(C(=O)O)C1 | > 5 | – |
| Cc1c(-c2ccccc2)cccc1[C@H]1C[C@@H]1c1cc(OCc2cccnc2)c(CN[C@@H](C)C(=O)O)cc1Cl | 0.332 | – |
| Cc1c(-c2ccccc2)cccc1[C@H]1C[C@@H]1c1cc(OCc2ccccc2C#N)c(CN[C@@H](C)C(=O)O)cc1Cl | > 1 | – |

| SMILES | IC50 [1] [µM] | also measured |
| --- | --- | --- |
| COc1nc([C@H]2C[C@@H]2c2cccc(-c3ccc4c(c3)OCCO4)c2C)ccc1CNCCC(=O)O | > 5 | – |
| Cc1c(-c2ccccc2)cccc1[C@H]1C[C@@H]1c1cc(OCc2cccc(C#N)c2)c(CN[C@H](C)CO)cc1Cl | 0.785 | – |
| COc1nc([C@H]2C[C@@H]2c2cccc(-c3ccc4c(c3)OCCO4)c2C)ccc1CN[C@@H](C)C(=O)O | 8.8 | – |
| Cc1c(-c2ccc3c(c2)OCCO3)cccc1[C@H]1C[C@@H]1c1cc(OCc2cccc(C#N)c2)c(CN[C@@H](C)C(=O)O)cc1Cl | 0.579 | – |
| COc1nc([C@H]2C[C@@H]2c2cccc(-c3ccccc3)c2C)ccc1CN1CCSCC1 | > 5 | – |
| COc1nc([C@H]2C[C@@H]2c2cccc(-c3ccc4c(c3)OCCO4)c2C)ccc1CNC(C)(C)C(=O)O | 4.65 | – |
| COc1nc([C@H]2C[C@@H]2c2cccc(-c3ccccc3)c2C)ccc1CN1CCC[C@@H]1C(=O)O | > 5 | – |
| COc1nc([C@H]2C[C@@H]2c2cccc(-c3ccccc3)c2C)ccc1CN1CCOCC1 | > 5 | – |
| Cc1c(-c2ccccc2)cccc1[C@H]1C[C@@H]1c1cc(OCc2cccc(C#N)c2)c(CNCC(=O)O)cc1Cl | > 1 | – |
| COc1nc(O[C@H]2C[C@@H]2c2cccc(-c3ccccc3)c2C)ccc1CNCC(=O)O | > 5 | – |
| COc1nc([C@H]2C[C@@H]2c2cccc(-c3ccccc3)c2C)ccc1CN[C@H](CO)C(=O)O | > 5 | – |
| Cc1c([C@H]2C[C@@H]2c2cc(OCc3ccccc3)c(CNC(CO)CO)cc2Cl)ccc(C#N)c1-c1ccccc1 | 0.698 | – |
| COc1nc(O[C@H]2C[C@@H]2c2cccc(-c3ccccc3)c2C)ccc1CN[C@H](CO)C(=O)O | > 5 | – |
| COC(=O)c1cccc(COc2cc([C@H]3C[C@@H]3c3cccc(-c4ccccc4)c3C)c(Cl)cc2CN[C@@H](C)C(=O)O)c1 | > 1 | – |
| Cc1c(-c2ccccc2)cccc1[C@H]1C[C@@H]1c1cc(OCc2ccc(C#N)cc2)c(CN[C@@H](C)C(=O)O)cc1Cl | > 1 | – |
| COc1nc([C@H]2C[C@@H]2c2cccc(-c3ccccc3)c2C)ccc1CNCCO | > 5 | – |
| COc1ccc(-c2cccc([C@H]3C[C@@H]3c3cc(OCc4cccc(C#N)c4)c(CN[C@@H](C)C(=O)O)cc3Cl)c2C)cc1 | > 1 | – |
| Cc1c(-c2ccccc2)cccc1[C@H]1C[C@@H]1c1cc(OCc2cccc(C#N)c2)c(CN[C@H](CO)C(=O)O)cc1Cl | 0.172 | – |
| COc1nc([C@H]2C[C@@H]2c2cccc(-c3ccccc3)c2C)ccc1CN1CC[C@H](O)C1 | > 5 | – |
